Measurements as given in patent US20110154874A1, “MIXTURE FOR THE TREATMENT OF UREA-CONTAINING FERTILIZERS” (FERTIVA GmbH, priority 2007, published 2011).
Values joined by “and” are separate entries in the source; they are usually repeats but may differ in a detail not shown here. Identical values can stand only once.

What was measured:
[1] = Storage test over 30 days, NBPT loss on treated granulated urea (HPLC analysis); format: physicochemical; settings: active compound applied to urea
Description: In a further storage test over 30 days at 30° C. and an atmospheric humidity of 60%, the NBPT losses measured (HPLC analysis) were as indicated below. At the beginning of the storage test, the NBPT was applied in a concentration of 0.12% by weight, based on the fertilizer, in a solution having the composition indicated below. The carrier fertilizer used was granulated urea.

[2] = test system: Chinese cabbage; settings: in vivo

stabilizing action on the active compound [1] | Structure (SMILES) | Fresh mass of shoots 21 days after planting [2]
no stabilizing action | CN1CCCC1=O [N-methylpyrrolidone (NMP), N-methylpyrrolidone] | 
 | NC(N)=O [Urea] | 14.3 g/pot and 20.05 g/pot and 11.65 g/pot
